How the values were obtained:
[1] = DRUGMATRIX: GABAA, Chloride Channel, TBOB radioligand binding (ligand: [3H] TBOB); assay type: cell membranes, Rattus norvegicus, Wistar, Cerebral cortex, Membrane; details: Not Active = under 50% inhibition at 10 µM
[2] = molecular target: T1, Nitric oxide synthase, inducible (Mus musculus, UniProt P29477); parameters: species or system Escherichia coli;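 note: inhibition of iNOS enzyme activity measured with L-arginine as substrate; in other assays of this panel Not Active means under 50% inhibition at 10 µM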
T1 sequence (P29477 whole entry): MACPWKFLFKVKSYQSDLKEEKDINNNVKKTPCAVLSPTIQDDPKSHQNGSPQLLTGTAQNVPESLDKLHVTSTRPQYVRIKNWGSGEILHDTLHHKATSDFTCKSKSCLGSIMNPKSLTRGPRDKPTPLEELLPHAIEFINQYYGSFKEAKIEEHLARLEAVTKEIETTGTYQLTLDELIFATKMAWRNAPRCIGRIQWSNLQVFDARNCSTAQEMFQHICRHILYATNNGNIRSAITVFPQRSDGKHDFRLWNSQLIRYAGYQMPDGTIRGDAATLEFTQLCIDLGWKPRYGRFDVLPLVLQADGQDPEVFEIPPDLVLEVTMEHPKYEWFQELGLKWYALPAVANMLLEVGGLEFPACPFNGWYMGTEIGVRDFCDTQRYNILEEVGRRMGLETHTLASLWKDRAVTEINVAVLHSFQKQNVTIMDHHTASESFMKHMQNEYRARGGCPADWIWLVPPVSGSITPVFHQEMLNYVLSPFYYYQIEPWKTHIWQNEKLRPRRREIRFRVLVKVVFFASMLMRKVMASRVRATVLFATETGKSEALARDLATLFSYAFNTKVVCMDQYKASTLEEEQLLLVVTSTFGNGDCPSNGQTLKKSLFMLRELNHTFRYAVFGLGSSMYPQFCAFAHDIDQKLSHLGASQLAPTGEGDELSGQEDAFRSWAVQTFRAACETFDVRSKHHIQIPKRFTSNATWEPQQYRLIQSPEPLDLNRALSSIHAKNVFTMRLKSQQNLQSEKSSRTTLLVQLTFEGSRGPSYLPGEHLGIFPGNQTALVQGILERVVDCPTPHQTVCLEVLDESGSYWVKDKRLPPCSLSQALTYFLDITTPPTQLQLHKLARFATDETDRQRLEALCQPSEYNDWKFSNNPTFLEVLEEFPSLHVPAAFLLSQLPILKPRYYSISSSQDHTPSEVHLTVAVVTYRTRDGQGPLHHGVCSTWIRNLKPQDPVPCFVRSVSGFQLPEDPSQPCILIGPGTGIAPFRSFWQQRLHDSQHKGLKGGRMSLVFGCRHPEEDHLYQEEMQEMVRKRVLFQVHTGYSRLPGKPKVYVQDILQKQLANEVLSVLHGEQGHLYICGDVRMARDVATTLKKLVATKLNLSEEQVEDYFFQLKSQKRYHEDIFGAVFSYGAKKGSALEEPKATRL

Adenosine receptor A2a = Adenosine receptor A2a (Homo sapiens, UniProt P29274); experiment: DRUGMATRIX: Adenosine A2A radioligand binding (ligand: […]); assay type: cell membranes, HEK293, Membrane; details: hek293; Not Active = under 50% inhibition at 10 µM
[3] = DRUGMATRIX: GABAA, Muscimol, Central radioligand binding (ligand: [3H] Muscimol); assay type: cell membranes, Rattus norvegicus, Wistar, Brain, Membrane; details: Not Active = under 50% inhibition at 10 µM
[4] = molecular target: Protein kinase C alpha type (Homo sapiens, UniProt P17252); assay type: cell-based; details: sf9;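 note: inhibition of PKCalpha kinase activity measured in an enzyme assay with histone as the phosphorylation substrate; in other assays of this panel Not Active means under 50% inhibition at 10 µM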
[5] = molecular target: Vascular endothelial growth factor receptor 1 (Homo sapiens, UniProt P17948); assay type: cell-based; details: huvec; note: in other assays of this panel Not Active means under 50% inhibition at 10 µM
[6] = molecular target: T2, Muscarinic acetylcholine receptor M4 (Homo sapiens, UniProt P08173); assay type: cell membranes, CHO-K1, Membrane; details: cho-k1; note: in other assays of this panel Not Active means under 50% inhibition at 10 µM
T2 sequence (P08173 whole entry): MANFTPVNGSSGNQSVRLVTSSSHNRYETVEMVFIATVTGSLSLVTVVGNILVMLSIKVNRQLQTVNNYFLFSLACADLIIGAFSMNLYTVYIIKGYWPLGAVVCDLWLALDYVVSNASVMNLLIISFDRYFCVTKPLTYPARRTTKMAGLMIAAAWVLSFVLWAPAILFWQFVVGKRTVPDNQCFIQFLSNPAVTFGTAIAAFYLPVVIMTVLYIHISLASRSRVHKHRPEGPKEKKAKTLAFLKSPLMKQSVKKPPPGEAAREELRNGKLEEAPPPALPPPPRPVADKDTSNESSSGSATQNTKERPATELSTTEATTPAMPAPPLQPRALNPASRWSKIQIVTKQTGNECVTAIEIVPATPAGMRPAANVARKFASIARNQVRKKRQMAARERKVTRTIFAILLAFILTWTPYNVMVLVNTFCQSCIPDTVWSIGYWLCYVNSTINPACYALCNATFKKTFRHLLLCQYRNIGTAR

[7] = molecular target: Tyrosine-protein kinase Lck (Homo sapiens, UniProt P06239); experiment: DRUGMATRIX: Protein Tyrosine Kinase, LCK enzyme inhibition (substrate: Poly(Glu:Tyr)); assay type: cell-based, Insect cells; details: insect cells; Not Active = under 50% inhibition at 10 µM
Adenosine receptor A1 = molecular target: T3, Adenosine receptor A1 (Homo sapiens, UniProt P30542); assay type: cell membranes, Membrane; details: cho
T3 sequence (P30542 whole entry): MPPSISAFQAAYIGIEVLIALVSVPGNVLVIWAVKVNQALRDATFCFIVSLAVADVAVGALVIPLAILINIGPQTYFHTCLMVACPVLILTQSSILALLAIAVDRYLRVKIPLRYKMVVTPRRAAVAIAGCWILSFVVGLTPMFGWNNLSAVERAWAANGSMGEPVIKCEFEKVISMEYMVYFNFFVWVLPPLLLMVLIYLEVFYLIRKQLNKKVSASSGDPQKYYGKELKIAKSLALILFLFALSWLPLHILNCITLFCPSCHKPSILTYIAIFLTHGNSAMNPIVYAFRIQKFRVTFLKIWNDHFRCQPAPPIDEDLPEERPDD

Vasopressin V1a receptor = Vasopressin V1a receptor (Homo sapiens, UniProt P37288); assay type: cell membranes, Membrane; details: hek293; note: in other assays of this panel Not Active means under 50% inhibition at 10 µM
[8] = molecular target: Aldo-keto reductase family 1 member B1 (Rattus norvegicus, UniProt P07943); experiment: biochemical; assay type: tissue-based, Lens of camera-type eye

Sequence of Adenosine receptor A2a (P29274 whole entry): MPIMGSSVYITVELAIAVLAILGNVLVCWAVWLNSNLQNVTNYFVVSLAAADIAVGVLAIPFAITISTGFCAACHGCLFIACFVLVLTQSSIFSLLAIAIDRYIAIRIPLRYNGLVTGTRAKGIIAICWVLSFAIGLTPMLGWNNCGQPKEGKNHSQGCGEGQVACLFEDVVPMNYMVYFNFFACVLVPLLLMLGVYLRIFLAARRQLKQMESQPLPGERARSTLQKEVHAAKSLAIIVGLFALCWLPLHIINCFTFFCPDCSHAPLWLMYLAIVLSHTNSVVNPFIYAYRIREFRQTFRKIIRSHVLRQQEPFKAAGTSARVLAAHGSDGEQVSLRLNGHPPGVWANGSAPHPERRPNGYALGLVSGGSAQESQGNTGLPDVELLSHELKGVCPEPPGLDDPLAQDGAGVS
Sequence of Tyrosine-protein kinase Lck (P06239 whole entry): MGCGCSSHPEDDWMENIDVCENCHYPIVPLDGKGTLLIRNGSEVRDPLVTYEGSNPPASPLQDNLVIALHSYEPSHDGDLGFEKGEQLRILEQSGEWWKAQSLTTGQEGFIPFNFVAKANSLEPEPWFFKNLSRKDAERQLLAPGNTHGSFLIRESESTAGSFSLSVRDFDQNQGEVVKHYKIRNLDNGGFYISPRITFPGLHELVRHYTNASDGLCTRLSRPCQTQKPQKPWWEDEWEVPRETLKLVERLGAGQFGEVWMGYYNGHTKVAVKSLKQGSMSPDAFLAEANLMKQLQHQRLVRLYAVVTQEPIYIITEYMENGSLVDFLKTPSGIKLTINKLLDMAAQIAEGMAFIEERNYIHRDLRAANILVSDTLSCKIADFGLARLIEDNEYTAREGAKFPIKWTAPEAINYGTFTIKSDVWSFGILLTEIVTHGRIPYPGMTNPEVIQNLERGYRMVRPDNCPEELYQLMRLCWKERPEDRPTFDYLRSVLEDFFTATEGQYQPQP
Sequence of Vascular endothelial growth factor receptor 1 (P17948 whole entry): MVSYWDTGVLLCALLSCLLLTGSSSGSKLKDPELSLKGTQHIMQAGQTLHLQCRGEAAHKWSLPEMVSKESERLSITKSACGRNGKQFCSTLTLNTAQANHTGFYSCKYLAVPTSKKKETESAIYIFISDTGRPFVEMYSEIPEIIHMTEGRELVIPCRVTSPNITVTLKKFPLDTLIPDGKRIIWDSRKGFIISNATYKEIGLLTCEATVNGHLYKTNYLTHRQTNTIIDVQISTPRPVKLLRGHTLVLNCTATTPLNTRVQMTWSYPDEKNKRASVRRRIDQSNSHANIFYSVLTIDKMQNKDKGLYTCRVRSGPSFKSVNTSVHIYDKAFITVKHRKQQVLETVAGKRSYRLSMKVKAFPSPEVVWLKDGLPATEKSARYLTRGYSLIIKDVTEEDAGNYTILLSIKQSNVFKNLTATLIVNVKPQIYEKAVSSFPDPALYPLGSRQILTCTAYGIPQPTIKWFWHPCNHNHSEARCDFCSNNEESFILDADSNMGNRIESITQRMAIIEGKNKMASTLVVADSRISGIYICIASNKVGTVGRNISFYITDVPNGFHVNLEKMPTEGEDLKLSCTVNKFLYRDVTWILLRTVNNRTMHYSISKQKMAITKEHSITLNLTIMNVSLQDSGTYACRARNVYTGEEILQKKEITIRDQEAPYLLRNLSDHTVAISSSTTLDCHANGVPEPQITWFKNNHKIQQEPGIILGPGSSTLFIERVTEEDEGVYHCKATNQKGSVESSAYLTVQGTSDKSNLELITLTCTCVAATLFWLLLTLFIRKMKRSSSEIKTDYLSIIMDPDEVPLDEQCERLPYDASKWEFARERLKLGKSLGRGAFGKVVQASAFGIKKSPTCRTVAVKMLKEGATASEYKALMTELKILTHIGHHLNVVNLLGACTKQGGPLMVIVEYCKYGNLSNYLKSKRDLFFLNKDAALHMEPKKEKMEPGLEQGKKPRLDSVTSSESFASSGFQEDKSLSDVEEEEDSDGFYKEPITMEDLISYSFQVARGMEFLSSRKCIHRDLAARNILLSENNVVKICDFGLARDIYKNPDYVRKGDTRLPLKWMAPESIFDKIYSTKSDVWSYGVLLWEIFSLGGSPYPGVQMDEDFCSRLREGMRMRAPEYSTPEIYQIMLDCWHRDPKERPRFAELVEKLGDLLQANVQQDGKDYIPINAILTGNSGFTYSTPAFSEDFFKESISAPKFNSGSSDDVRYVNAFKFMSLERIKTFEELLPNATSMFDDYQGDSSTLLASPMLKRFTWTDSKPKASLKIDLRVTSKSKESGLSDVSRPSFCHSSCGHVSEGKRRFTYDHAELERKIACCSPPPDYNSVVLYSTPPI
Sequence of Vasopressin V1a receptor (P37288 whole entry): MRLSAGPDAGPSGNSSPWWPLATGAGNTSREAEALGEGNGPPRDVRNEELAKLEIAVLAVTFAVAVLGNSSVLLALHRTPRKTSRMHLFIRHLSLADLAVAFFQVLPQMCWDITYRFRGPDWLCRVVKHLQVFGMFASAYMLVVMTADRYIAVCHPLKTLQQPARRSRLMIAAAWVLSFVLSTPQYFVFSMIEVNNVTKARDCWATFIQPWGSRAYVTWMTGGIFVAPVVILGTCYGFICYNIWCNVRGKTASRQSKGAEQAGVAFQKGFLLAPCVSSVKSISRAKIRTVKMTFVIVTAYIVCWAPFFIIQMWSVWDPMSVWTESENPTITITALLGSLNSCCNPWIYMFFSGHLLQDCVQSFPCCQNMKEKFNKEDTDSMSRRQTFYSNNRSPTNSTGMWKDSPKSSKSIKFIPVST

CC(=O)N1CCN(c2ccc(OCC3COC(Cn4ccnc4)(c4ccc(Cl)cc4Cl)O3)cc2)CC1 (stereo not given) [KETOCONAZOLE]
Not Active: IC50 [1] | Ki [1] | IC50 [2] | IC50 (Adenosine receptor A2a) | IC50 [3] | Ki [3] | IC50 [4] | IC50 [5] | IC50 [6] | IC50 [7] | IC50 (Adenosine receptor A1) | IC50 (Vasopressin V1a receptor) | IC50 [8]

COCCOC(=O)C1=C(C)NC(C)=C(C(=O)OC(C)C)C1c1cccc([N+](=O)[O-])c1 (stereo not given) [NIMODIPINE]
Not Active: IC50 [1] | Ki [1] | IC50 [2] | IC50 (Adenosine receptor A2a) | IC50 [3] | Ki [3] | IC50 [4] | IC50 [5] | IC50 [6] | IC50 [7] | IC50 (Adenosine receptor A1) | IC50 (Vasopressin V1a receptor) | IC50 [8]

COCCCOc1ccnc(C[S+]([O-])c2nc3ccccc3[nH]2)c1C (stereo not given) [RABEPRAZOLE]
Not Active: IC50 [1] | Ki [1] | IC50 [2] | IC50 (Adenosine receptor A2a) | IC50 [3] | Ki [3] | IC50 [4] | IC50 [5] | IC50 [6] | IC50 [7] | IC50 (Adenosine receptor A1) | IC50 (Vasopressin V1a receptor) | IC50 [8]

CNC(=C[N+](=O)[O-])NCCSCc1ccc(CN(C)C)o1 [RANITIDINE]
Not Active: IC50 [1] | Ki [1] | IC50 [2] | IC50 (Adenosine receptor A2a) | IC50 [3] | Ki [3] | IC50 [4] | IC50 [5] | IC50 [6] | IC50 [7] | IC50 (Adenosine receptor A1) | IC50 (Vasopressin V1a receptor) | IC50 [8]

CO[C@H]1/C=C/O[C@@]2(C)Oc3c(C)c(O)c4c(c3C2=O)C2=NC3(CCN(CC(C)C)CC3)NC2=C(NC(=O)/C(C)=C\C=C\[C@H](C)[C@H](O)[C@@H](C)[C@@H](O)[C@@H](C)[C@H](OC(C)=O)[C@@H]1C)C4=O [RIFABUTIN]
Not Active: IC50 [1] | Ki [1] | IC50 [2] | IC50 (Adenosine receptor A2a) | IC50 [3] | Ki [3] | IC50 [4] | IC50 [5] | IC50 [6] | IC50 [7] | IC50 (Adenosine receptor A1) | IC50 (Vasopressin V1a receptor) | IC50 [8]

CC(C)CC(N(C)C)C1(c2ccc(Cl)cc2)CCC1 (stereo not given) [SIBUTRAMINE]
Not Active: IC50 [1] | Ki [1] | IC50 [2] | IC50 (Adenosine receptor A2a) | IC50 [3] | Ki [3] | IC50 [4] | IC50 [5] | IC50 [6] | IC50 [7] | IC50 (Adenosine receptor A1) | IC50 (Vasopressin V1a receptor) | IC50 [8]

[H]/N=C(/N)N[C@H]1[C@H](O)[C@@H](O)[C@H](O[C@@H]2O[C@@H](C)[C@](O)(C=O)[C@H]2O[C@@H]2O[C@@H](CO)[C@H](O)[C@@H](O)[C@@H]2NC)[C@@H](N/C(N)=N\[H])[C@@H]1O [STREPTOMYCIN]
Not Active: IC50 [1] | Ki [1] | IC50 [2] | IC50 (Adenosine receptor A2a) | IC50 [3] | Ki [3] | IC50 [4] | IC50 [5] | IC50 [6] | IC50 [7] | IC50 (Adenosine receptor A1) | IC50 (Vasopressin V1a receptor) | IC50 [8]

COc1cc(NS(=O)(=O)c2ccc(N)cc2)nc(OC)n1 [SULFADIMETHOXINE]
Not Active: IC50 [1] | Ki [1] | IC50 [2] | IC50 (Adenosine receptor A2a) | IC50 [3] | Ki [3] | IC50 [4] | IC50 [5] | IC50 [6] | IC50 [7] | IC50 (Adenosine receptor A1) | IC50 (Vasopressin V1a receptor) | IC50 [8]

Cc1cc(C)nc(NS(=O)(=O)c2ccc(N)cc2)n1 [SULFAMETHAZINE]
Not Active: IC50 [1] | Ki [1] | IC50 [2] | IC50 (Adenosine receptor A2a) | IC50 [3] | Ki [3] | IC50 [4] | IC50 [5] | IC50 [6] | IC50 [7] | IC50 (Adenosine receptor A1) | IC50 (Vasopressin V1a receptor) | IC50 [8]

C[C@]1(Cn2ccnn2)[C@H](C(=O)O)N2C(=O)C[C@H]2S1(=O)=O [TAZOBACTAM]
Not Active: IC50 [1] | Ki [1] | IC50 [2] | IC50 (Adenosine receptor A2a) | IC50 [3] | Ki [3] | IC50 [4] | IC50 [5] | IC50 [6] | IC50 [7] | IC50 (Adenosine receptor A1) | IC50 (Vasopressin V1a receptor) | IC50 [8]

Source: ChEMBL document CHEMBL1909046, “DrugMatrix in vitro pharmacology data”
